Experiments:
[1] = Solubility in 50% sodium hydroxide solution; type: physicochemical
Protocol: A 500 ml, 3-necked round bottom flask was fitted with a mechanical stirrer, thermometer, nitrogen inlet, dropping funnel and vent. Under the nitrogen atmosphere, Armeen CD^(1), 15 g (0.075 mole) was placed in the flask and the contents heated to 138° C. Glycidol in an amount of 16.67 g (0.225 mole) was placed in the dropping funnel and glycidol addition to the Armeen CD was initiated at a rate of approximately 0.15 g/minute. Reaction temperature was maintained at 140°-152° C. and glycidol addition was completed in about 2 hours. The reaction mixture was stirred and heated at reaction temperature an additional 2 hours. The flask and its contents were then cooled and the product removed. […] This product was referred to as cocamine 3-mole glycidol adduct and its molecular weight was 422.
All three products were soluble in 50% sodium hydroxide solution.

[2] = tested on: STAPHYLOCOCCUS AUREUS (Gram positive); test: Minimum Inhibitory Concentration (MIC) test; type: cell-based
Protocol: (§1) Minimum Inhibitory Concentration (MIC's) were determined and compared to a nonylphenol-glycidol based surfactant.

A[…] (Fungus) = test: Minimum Inhibitory Concentration (MIC) test; type: cell-based; settings: Aspergillus niger (fungus)
Protocol: as §1

E[…] (Gram Negative) = test: Minimum Inhibitory Concentration (MIC) test; type: cell-based; settings: Escheridida coli (Gram negative)
Protocol: as §1

[3] = Surface tension (ASTM Designation D1331-56); type: physicochemical; settings: 0.1 wt. % concentration; ASTM D1331-56
From the text: The surface tensions (ASTM Designation D1331-56) of the products at 0.1 wt. % concentration were as follows: […]

Substance | solubility in 50% sodium hydroxide solution [1] | Minimum Inhibitory Concentration [2] | Minimum Inhibitory Concentration (A[…] (Fungus)) | Minimum Inhibitory Concentration (E[…] (Gram Negative)) | surface tension [3]
cocamine 3-mole glycidol adduct | soluble and clear |  |  |  | 
Armeen CD-3m glycidol amine [Example I] |  | 32 PPM | 128 PPM | 256 PPM | 32.3 dynes/cm
